Columns and labels:
[1] = target: T1, Potassium voltage-gated channel subfamily KQT member 4 (Rattus norvegicus) (UniProt Q9JK96); test: Activation of rat Kv7.4 expressed in CHOK1 cells assessed as increase in current amplitude relative to control; type: cell-based; settings: CHO-K1
T1 sequence (whole entry): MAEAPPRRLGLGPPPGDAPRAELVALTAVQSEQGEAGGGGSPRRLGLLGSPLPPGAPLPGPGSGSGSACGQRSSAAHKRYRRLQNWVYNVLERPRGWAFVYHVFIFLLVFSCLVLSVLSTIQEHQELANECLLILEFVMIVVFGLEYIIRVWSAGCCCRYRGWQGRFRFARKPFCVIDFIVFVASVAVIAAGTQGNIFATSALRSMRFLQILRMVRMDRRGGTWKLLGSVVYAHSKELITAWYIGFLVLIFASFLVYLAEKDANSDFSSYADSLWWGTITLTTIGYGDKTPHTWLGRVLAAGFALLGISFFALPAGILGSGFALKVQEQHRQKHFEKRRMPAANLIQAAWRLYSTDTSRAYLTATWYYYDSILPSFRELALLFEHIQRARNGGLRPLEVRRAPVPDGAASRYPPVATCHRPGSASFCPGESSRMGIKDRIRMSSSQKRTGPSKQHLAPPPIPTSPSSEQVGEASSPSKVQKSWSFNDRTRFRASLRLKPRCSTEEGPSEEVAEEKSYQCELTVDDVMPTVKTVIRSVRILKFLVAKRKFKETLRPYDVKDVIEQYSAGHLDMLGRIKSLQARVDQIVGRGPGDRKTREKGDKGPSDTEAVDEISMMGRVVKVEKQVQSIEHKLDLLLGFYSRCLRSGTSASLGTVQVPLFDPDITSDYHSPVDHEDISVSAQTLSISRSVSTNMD

[2] = test system: Rattus norvegicus; test: Anticonvulsant activity in Sprague-Dawley rat assessed as protection against maximal electroshock-induced convulsion at 10 mg/kg, po administered 60 mins prior to application of shock via corneal electrodes relative to control; type: functional
[3] = Fraction unbound in rat brain by equilibrium dialysis method; type: ADME, tissue-based
[4] = test system: Rattus norvegicus; test: Anticonvulsant activity in Sprague-Dawley rat assessed as protection against maximal electroshock-induced convulsion at 1 mg/kg, po administered 60 mins prior to application of shock via corneal electrodes relative to control; type: functional
[5] = Fraction unbound in rat plasma by equilibrium dialysis method; type: ADME, cell-free
[6] = test system: Rattus norvegicus; test: Anticonvulsant activity in Sprague-Dawley rat assessed as protection against maximal electroshock-induced convulsion at 30 mg/kg, po administered 60 mins prior to application of shock via corneal electrodes relative to control; type: functional
[7] = test system: Brain; test: Fraction unbound in Sprague-Dawley rat brain at 1 mg/kg, sc administered at 30 mins by LC-MS/MS analysis; type: ADME, organism-based; settings: in vivo, 0.5 h
[8] = test system: Plasma; test: Unbound plasma concentration in Sprague-Dawley rat at 30 mg/kg, sc administered at 30 mins by LC-MS/MS analysis; type: ADME, organism-based; settings: in vivo, 0.5 h
[9] = Ratio of free drug level in plasma to brain in Sprague-Dawley rat at 30 mg/kg, po administration at 60 mins; type: ADME, organism-based; settings: in vivo, 1 h
[10] = test system: Plasma; test: Unbound plasma concentration in Sprague-Dawley rat at 30 mg/kg, po administered at 60 mins by LC-MS/MS analysis; type: ADME, organism-based; settings: in vivo, 1 h
[11] = test system: Rattus norvegicus; test: Anticonvulsant activity in po dosed Sprague-Dawley rat assessed as protection against maximal electroshock-induced convulsion administered 60 mins prior to application of shock via corneal electrodes; type: functional, organism-based
[12] = target: T2, Potassium voltage-gated channel subfamily KQT member 4 (Homo sapiens, UniProt P56696); test: Activation of human Kv7.4 expressed in CHOK1 cells; type: cell-based, CHO-K1
T2 sequence (P56696 whole entry): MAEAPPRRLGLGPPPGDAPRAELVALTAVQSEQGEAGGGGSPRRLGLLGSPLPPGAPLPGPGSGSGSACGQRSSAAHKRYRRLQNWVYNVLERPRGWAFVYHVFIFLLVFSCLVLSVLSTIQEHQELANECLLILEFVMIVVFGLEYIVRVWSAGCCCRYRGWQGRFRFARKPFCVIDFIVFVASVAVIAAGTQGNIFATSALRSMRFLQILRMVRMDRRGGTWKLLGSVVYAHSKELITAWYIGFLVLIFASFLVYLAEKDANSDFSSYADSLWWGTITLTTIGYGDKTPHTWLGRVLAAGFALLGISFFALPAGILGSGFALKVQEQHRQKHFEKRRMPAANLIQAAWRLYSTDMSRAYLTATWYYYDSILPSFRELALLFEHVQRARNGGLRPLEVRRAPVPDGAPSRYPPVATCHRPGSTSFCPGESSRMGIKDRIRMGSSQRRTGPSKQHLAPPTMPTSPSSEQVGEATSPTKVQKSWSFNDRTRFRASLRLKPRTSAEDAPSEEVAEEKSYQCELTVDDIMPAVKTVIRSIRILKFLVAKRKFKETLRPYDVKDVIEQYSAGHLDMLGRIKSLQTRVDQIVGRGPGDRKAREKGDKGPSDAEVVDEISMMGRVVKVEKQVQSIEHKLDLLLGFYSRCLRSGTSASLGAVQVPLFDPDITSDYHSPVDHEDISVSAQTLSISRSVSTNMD

[13] = test system: Brain; test: Fraction unbound in Sprague-Dawley rat brain at 3 mg/kg, sc administered at 30 mins by LC-MS/MS analysis; type: ADME, organism-based; settings: in vivo, 0.5 h
[14] = Ratio of free drug level in plasma to brain in Sprague-Dawley rat at 30 mg/kg, sc administration at 30 mins; type: ADME, organism-based; settings: in vivo, 0.5 h
[15] = test system: Plasma; test: Unbound plasma concentration in Sprague-Dawley rat at 3 mg/kg, sc administered at 30 mins by LC-MS/MS analysis; type: ADME, organism-based; settings: in vivo, 0.5 h
[16] = test system: Brain; test: Fraction unbound in Sprague-Dawley rat brain at 10 mg/kg, po administered at 60 mins by LC-MS/MS analysis; type: ADME, organism-based; settings: in vivo, 1 h
[17] = Permeability in dog RRCK cells after 2 hrs by transwell assay; type: ADME, cell-based, Canis lupus familiaris, MDCKII-LE; settings: mdck, read-out: permeability
[18] = test system: Plasma; test: Unbound plasma concentration in Sprague-Dawley rat at 3 mg/kg, po administered at 60 mins by LC-MS/MS analysis; type: ADME, organism-based; settings: in vivo, 1 h
[19] = test system: Rattus norvegicus; test: Anticonvulsant activity in sc dosed Sprague-Dawley rat assessed as protection against maximal electroshock-induced convulsion administered 30 mins prior to application of shock via corneal electrodes; type: functional, organism-based
[20] = target: T3, Potassium voltage-gated channel subfamily KQT member 4 (Rattus norvegicus, UniProt Q9JK96); test: Activation of rat Kv7.4 expressed in CHOK1 cells; type: cell-based, CHO-K1
T3 sequence (Q9JK96 whole entry): T1 sequence (whole entry)

[21] = test system: Brain; test: Fraction unbound in Sprague-Dawley rat brain at 30 mg/kg, sc administered at 30 mins by LC-MS/MS analysis; type: ADME, organism-based; settings: in vivo, 0.5 h
[22] = target: Voltage-gated potassium channel, KQT; KCNQ2(Kv7.2)/KCNQ3(Kv7.3) (Homo sapiens) (UniProt O43526+O43525); test: Activation of human Kv7.2/7.3 expressed in CHOK1 cells assessed as increase in current amplitude relative to control; type: cell-based; settings: CHO-K1
[23] = test system: Plasma; test: Unbound plasma concentration in Sprague-Dawley rat at 1 mg/kg, po administered at 60 mins by LC-MS/MS analysis; type: ADME, organism-based; settings: in vivo, 1 h
[24] = Ratio of free drug level in plasma to brain in Sprague-Dawley rat at 10 mg/kg, sc administration at 30 mins; type: ADME, organism-based; settings: in vivo, 0.5 h

Activity [1]: 161%
fraction unbound [3]: 0.13
fraction unbound [5]: 0.184
Drug uptake(free) [7]: 33 nM
Cp(f) [8]: 305 nM
Ratio [9]: 0.48
Cp(f) [10]: 572 nM
EC50 [12]: 625 nM
Drug uptake(free) [13]: 90 nM
Ratio [14]: 0.55
Cp(f) [15]: 151 nM
Drug uptake(free) [16]: 83 nM
Papp at 2 h [17]: 24.9 ×10⁻⁶ cm/s
Cp(f) [18]: 109 nM
EC50 [20]: 376 nM
Drug uptake(free) [21]: 167 nM
Activity [22]: 265%
Cp(f) [23]: 15 nM
Ratio [24]: 0.59
Structure (SMILES): COc1nc(N2CCC(OC)CC2)nc(OC)c1NC(=O)CC(C)(C)C
Activity [2]: 100%
Activity [4]: 0%
Activity [6]: 100%
Activity [11]: Dose-dependent effect
Activity [19]: Dose-dependent effect

— ChEMBL document CHEMBL3621090, “Discovery of a novel Kv7 channel opener as a treatment for epilepsy” (Bioorg Med Chem Lett, 2015)
